Results reported in PMC6001238, “Iterative Chemical Engineering of Vancomycin Leads to Novel Vancomycin Analogs With a High in Vitro Therapeutic Index” (Frontiers in Microbiology, 2018).
Values after ≈ are worked out from the molar mass of the structure shown.

Experiments:
[1] = test system: E. faecalis VSE 1; assay: MIC, broth microdilution, vancomycin-sensitive E. faecalis (VSE 1); type: cell-based, Enterococcus faecalis; conditions: for MIC: Enterococcus faecalis VSE 1 (vancomycin-sensitive), read-out: MIC; for MIC-fold improvement vs. vancomycin: VSE 1, ratio of MIC of vancomycin and MIC of analogue
Summary of the method: (§1)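 Susceptibility was scored by broth microdilution (CLSI). In one instance each vancomycin analog or control antibiotic was tested in the presence of vancomycin, 10 μM final, and ultrapure water plus non-inoculated broth were included as controls.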

[2] = test system: E. faecalis VRE 6; assay: MIC, broth microdilution, vancomycin-resistant E. faecalis VRE 6 (VanA); type: cell-based, Enterococcus faecalis; conditions: for MIC: Enterococcus faecalis VRE 6 (vancomycin-resistant), read-out: MIC; for MIC-fold improvement vs. vancomycin: VRE 6, ratio of MIC of vancomycin and MIC of analogue
Summary of the method: as §1

[3] = test system: E. faecalis VRE 53; assay: MIC, broth microdilution, vancomycin-resistant E. faecalis VRE 53 (VanA); type: cell-based, Enterococcus faecalis; conditions: for MIC: Enterococcus faecalis VRE 53 (vancomycin-resistant), read-out: MIC; for MIC-fold improvement vs. vancomycin: VRE 53, ratio of MIC of vancomycin and MIC of analogue
Summary of the method: as §1

[4] = test system: E. faecalis VRE 29; assay: MIC, broth microdilution, vancomycin-resistant E. faecalis VRE 29 (VanA); type: cell-based, Enterococcus faecalis; conditions: for MIC: Enterococcus faecalis VRE 29 (vancomycin-resistant), read-out: MIC; for MIC-fold improvement vs. vancomycin: VRE 29, ratio of MIC of vancomycin and MIC of analogue
Summary of the method: as §1

[5] = test system: E. faecalis VRE 37; assay: MIC, broth microdilution, vancomycin-resistant E. faecalis VRE 37 (VanA); type: cell-based, Enterococcus faecalis; conditions: for MIC: Enterococcus faecalis VRE 37 (vancomycin-resistant), read-out: MIC; for MIC-fold improvement vs. vancomycin: VRE 37, ratio of MIC of vancomycin and MIC of analogue
Summary of the method: as §1

[6] = test system: Murine leukemia (L1210) cells; assay: Cytostatic activity, L1210 cell proliferation; type: cell-based; conditions: mean ± SD of three experiments; highest concentration tested 250 µM; 2 days; read-out: Toxicity (IC50) L1210
Summary of the method: (§2)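 Readout: Coulter cell number after drug exposure at 37°C. Durations differ by line (L1210 2 days; CEM 3 days; HeLa 4 days). Stock suspension 300,000–500,000 cells/mL, diluted by mixing with compound. Endpoint: IC50 vs negative control.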

[7] = test system: human T-lymphocyte (CEM) cells; assay: Cytostatic activity, CEM cell proliferation; type: cell-based; conditions: mean ± SD of three experiments; highest concentration tested 250 µM; 3 days; read-out: Toxicity (IC50) CEM
Summary of the method: as §2

[8] = test system: human cervix carcinoma (HeLa) cells; assay: Cytostatic activity, HeLa cell proliferation; type: cell-based; conditions: mean ± SD of three experiments; highest concentration tested 250 µM; 4 days; read-out: Toxicity (IC50) HeLa
Summary of the method: as §2

[9] = test system: L1210, CEM and HeLa cell lines; assay: Cytostatic activity, average or summary over L1210, CEM and HeLa; type: cell-based; conditions: average of L1210, CEM and HeLa; read-out: Toxicity (IC50) Average
Summary of the method: as §2

[10] = test system: S. aureus VSSA (ATCC 6538); assay: MIC, broth microdilution, vancomycin-sensitive S. aureus (VSSA/MSSA, ATCC 6538); type: cell-based, Staphylococcus aureus; conditions: for MIC: Staphylococcus aureus VSSA, read-out: MIC; for MIC-fold improvement vs. vancomycin: VSSA, ratio of MIC of vancomycin and MIC of analogue
Summary of the method: as §1

[11] = test system: S. aureus VISA/HIP5827; assay: MIC, broth microdilution, vancomycin-intermediate S. aureus VISA HIP5827; type: cell-based, Staphylococcus aureus; conditions: for MIC: Staphylococcus aureus VISA/HIP5827, read-out: MIC; for MIC-fold improvement vs. vancomycin: VISA/HIP5827, ratio of MIC of vancomycin and MIC of analogue
Summary of the method: as §1

[12] = test system: S. aureus VRSA; assay: MIC, broth microdilution, vancomycin-resistant S. aureus (VRSA); type: cell-based, Staphylococcus aureus; conditions: for MIC: Staphylococcus aureus VRSA, read-out: MIC; for MIC-fold improvement vs. vancomycin: VRSA, ratio of MIC of vancomycin and MIC of analogue
Summary of the method: as §1

[13] = test system: MRSA KS2; assay: MIC, broth microdilution, MRSA KS2; type: cell-based, Staphylococcus aureus; conditions: for MIC-fold improvement vs. vancomycin: MRSA KS2, ratio of MIC of vancomycin and MIC of analogue; for MIC: Staphylococcus aureus MRSA KS2, read-out: MIC
Summary of the method: as §1

[14] = test system: MRSA KS6; assay: MIC, broth microdilution, MRSA KS6; type: cell-based, Staphylococcus aureus; conditions: for MIC-fold improvement vs. vancomycin: MRSA KS6, ratio of MIC of vancomycin and MIC of analogue; for MIC: Staphylococcus aureus MRSA KS6, read-out: MIC
Summary of the method: as §1

[15] = test system: MRSA KS89; assay: MIC, broth microdilution, MRSA KS89; type: cell-based, Staphylococcus aureus; conditions: for MIC-fold improvement vs. vancomycin: MRSA KS8, ratio of MIC of vancomycin and MIC of analogue; for MIC: Staphylococcus aureus MRSA KS8, read-out: MIC
Summary of the method: as §1

[16] = test system: MRSA KS1; assay: MIC, broth microdilution, MRSA KS1; type: cell-based, Staphylococcus aureus; conditions: for MIC-fold improvement vs. vancomycin: MRSA KS1, ratio of MIC of vancomycin and MIC of analogue; for MIC: Staphylococcus aureus MRSA KS1, read-out: MIC
Summary of the method: as §1

Row | SMILES | MIC [1] [µM] | MIC-fold improvement vs. vancomycin [1] | MIC [2] [µM] | MIC-fold improvement vs. vancomycin [2] | MIC [3] [µM] | MIC-fold improvement vs. vancomycin [3] | MIC [4] [µM] | MIC [5] [µM] | MIC-fold improvement vs. vancomycin [5] | IC50 [6] [µM] | IC50 [7] [µM] | IC50 [8] [µM] | IC50 [9] [µM] | MIC [10] [µM] | MIC-fold improvement vs. vancomycin [10] | MIC [11] [µM] | MIC-fold improvement vs. vancomycin [11] | MIC [12] [µM] | MIC-fold improvement vs. vancomycin [12] | MIC-fold improvement vs. vancomycin [13] | also measured
1 | CN[C@H](CC(C)C)C(=O)N[C@H]1C(=O)N[C@@H](CC(N)=O)C(=O)N[C@H]2C(=O)N[C@H]3C(=O)N[C@H](C(=O)N[C@H](C(=O)NCC(=O)Nc4ccc(-c5cn(-c6ccccc6)nn5)cc4)c4cc(O)cc(O)c4-c4cc3ccc4O)[C@H](O)c3ccc(c(Cl)c3)Oc3cc2cc(c3O[C@@H]2O[C@H](CO)[C@@H](O)[C@H](O)[C@H]2O[C@H]2C[C@](C)(N)[C@H](O)[C@H](C)O2)Oc2ccc(cc2Cl)[C@H]1O [Vanc-77] | 0.39 (≈ 0.673 µg/mL) | 4 | 1.56 (≈ 2.69 µg/mL) | 128 | 6.25 (≈ 10.8 µg/mL) | 64 | 6.25 (≈ 10.8 µg/mL) | 6.25 (≈ 10.8 µg/mL) | 64 | 192 ± 101 | 26 ± 1 | 58 ± 7 | 92 | 0.39 (≈ 0.673 µg/mL) | 2 | 0.78 (≈ 1.35 µg/mL) | 8 | 0.78 (≈ 1.35 µg/mL) | 128 | 4 | MIC-fold improvement vs. vancomycin [4]: 64; MIC [13]: 0.20 µM (≈ 0.345 µg/mL); MIC-fold improvement vs. vancomycin [14]: 4; MIC [14]: 0.20 µM (≈ 0.345 µg/mL); MIC-fold improvement vs. vancomycin [15]: 4; MIC [15]: 0.20 µM (≈ 0.345 µg/mL); MIC-fold improvement vs. vancomycin [16]: >8; MIC [16]: <0.10 µM
2 | CNC(CC(C)C)C(=O)NC1C(=O)NC(CC(N)=O)C(=O)NC2C(=O)NC3C(=O)NC(C(=O)NC(C(=O)NCC(=O)Nc4ccc(-c5ccc(Cl)cc5)cc4)c4cc(O)cc(O)c4-c4cc3ccc4O)C(O)c3ccc(c(Cl)c3)Oc3cc2cc(c3OC2OC(CO)C(O)C(O)C2OC2CC(C)(N)C(O)C(C)O2)Oc2ccc(cc2Cl)C1O (centres unmarked) [Vanc-84] | ≤0.05 | ≥32 | 0.78 (≈ 1.32 µg/mL) | 256 | 3.13 (≈ 5.3 µg/mL) | 128 | 0.78 (≈ 1.32 µg/mL) | 3.13 (≈ 5.3 µg/mL) | 128 | 1.5 ± 0.1 | 1.6 ± 0.9 | 13 | 5 | 0.10 (≈ 0.169 µg/mL) | 8 | 0.39 (≈ 0.66 µg/mL) | 16 | 0.78 (≈ 1.32 µg/mL) | 128 | 8 | MIC-fold improvement vs. vancomycin [4]: 512; MIC [13]: 0.10 µM (≈ 0.169 µg/mL); MIC-fold improvement vs. vancomycin [14]: 4; MIC [14]: 0.20 µM (≈ 0.338 µg/mL); MIC-fold improvement vs. vancomycin [15]: 4; MIC [15]: 0.20 µM (≈ 0.338 µg/mL); MIC-fold improvement vs. vancomycin [16]: 8; MIC [16]: 0.10 µM (≈ 0.169 µg/mL)
3 | CNC(CC(C)C)C(=O)NC1C(=O)NC(CC(N)=O)C(=O)NC2C(=O)NC3C(=O)NC(C(=O)NC(C(=O)NCC(=O)Nc4ccc(-c5ccc(C(C)=O)cc5)cc4)c4cc(O)cc(O)c4-c4cc3ccc4O)C(O)c3ccc(c(Cl)c3)Oc3cc2cc(c3OC2OC(CO)C(O)C(O)C2OC2CC(C)(N)C(O)C(C)O2)Oc2ccc(cc2Cl)C1O (centres unmarked) [Vanc-85] | ≤0.05 | ≥32 | 0.78 (≈ 1.33 µg/mL) | 256 | 12.5 (≈ 21.2 µg/mL) | 32 | 1.56 (≈ 2.65 µg/mL) | 3.13 (≈ 5.32 µg/mL) | 128 | 31 ± 9 | 5.6 ± 0.6 | 94 ± 12 | 44 | 0.20 (≈ 0.34 µg/mL) | 4 | 0.78 (≈ 1.33 µg/mL) | 8 | 1.56 (≈ 2.65 µg/mL) | 64 | 4 | MIC [13]: 0.20 µM (≈ 0.34 µg/mL); MIC-fold improvement vs. vancomycin [14]: 2; MIC [14]: 0.39 µM (≈ 0.663 µg/mL); MIC-fold improvement vs. vancomycin [15]: 4; MIC [15]: 0.20 µM (≈ 0.34 µg/mL); MIC-fold improvement vs. vancomycin [16]: 8; MIC [16]: 0.10 µM (≈ 0.17 µg/mL)
